Patent publication US11130132B2, “Microfluidic neutrophil assays and systems for disease detection” (The General Hospital Corporation, priority 2016, dated 2021)

B1: IFN-γ: immune-modulator previously reported to be elevated in septic blood, spiked into whole blood (protein, UniProt P01579 24-161, looked up)
Interferon gamma: QDPYVKEAENLKKYFNAGHSDVADNGTLFLGILKNWKEESDRKIMQSQIVSFYFKLFKNFKDDQSIQKSVETIKEDMNVKFFNSNKKKRDDFEKLTNYSVTDLNVQRKAIHELIQVMAELSPAAKTGKRKRSQMLFRG
B2: G-SCF: immune-modulator previously reported to be elevated in septic blood, spiked into whole blood (protein, UniProt P09919 31-207, looked up)
Granulocyte …: TPLGPASSLPQSFLLKCLEQVRKIQGDGAALQEKLVSECATYKLCHPEELVLLGHSLGIPWAPLSSCPSQALQLAGCLSQLHSGLFLYQGLLQALEGISPELGPTLDTLQLDVADFATTIWQQMEELGMAPALQPTQGAMPAFASAFQRRAGGVLVASHLQSFLEVSYRVLRHLAQP

Tested on: neutrophils in whole blood
Experiment: blood-spiking with immune-modulators: spontaneous neutrophil motility in whole blood in the microfluidic device
Type: cell-based, human
Details: 37° C. 30 min before loading
Experimental: Prior to the addition of a blood sample, devices were primed with IMDM containing 10% FBS and 1% Fibronectin (from human plasma, Sigma) by pipetting 50 μl into the sample loading chamber and around each device, such that a dome of liquid formed on top, and the outer edge of the device in contact with the coverslip was surrounded. The devices were placed under a vacuum for at least 10 minutes, and then removed and allowed to re-pressurize and equilibrate for at least 15 minutes to remove bubbles.
Whole blood samples to be loaded in the device were diluted 1:1 in IMDM with 20% FBS and stained with Hoechst 33342 dye at 32 μM for 15 minutes prior to loading. A small droplet of 0.5 μL of stained blood was then pipetted into the center of the device using a gel-loading tip. The blood droplet is pipetted into the central chamber and time-lapse imaging of the mazes was then used to measure neutrophil behavior over a period of 4 hours.
Cell motility was imaged at 10× magnification using a fully automated fluorescent Nikon TiE inverted wide field microscope with a biochamber heated to 37° C. with 5% CO2. Each microfluidic device included 8 imaging fields, each containing one […]. Each field was imaged every 2 minutes over the course of 4 hours to allow accurate tracking of cell motility.
Automated cell tracking was performed using ImageCV, TrackPy, and SciKit-Learn packages in Python. Files were converted to standard AVI format using Nikon Elements or ImageJ. Initial processing was performed to allow brightfield tracking and included removing the background. Cell tracking was performed automatically from brightfield images for most of the time-lapse sequences. Cells were tracked by size, velocity, and directionality. These tracks were written to individual CSV files for each imaging field. The specific variables for each track included: track number, video frame, cell diameter, x position, y position, distance, and velocity. Cell motility pattern identification and definitions are detailed in Table 2. Figures were prepared using Illustrator CS5 Version 15.0.0 (Adobe Systems).
For plasma-swapping experiments, 1 mL of whole blood was centrifuged at 200 g for 10 minutes to pellet cells. The platelet-rich plasma supernatants were then drawn from the tubes and transferred into fresh tubes. Platelets were then pelleted at 1900 g for 10 minutes and the plasma fraction drawn into fresh tubes. Cell pellets were then re-suspended in the appropriate exchanged plasma and an aliquot loaded into the device. For blood-spiking experiments, immune-modulators were added to the media at 2× the target dose prior to mixing 1:1 with whole blood. Once mixed, spiked blood samples were incubated at 37° C. for 30 min prior to loading.

[1] = whole blood spiked at 0.1 ng/mL
[2] = whole blood spiked at 1.0 ng/mL
[3] = whole blood spiked at 0.5 ng/mL
[4] = whole blood spiked at 1.8 ng/mL
[5] = whole blood spiked at 0.3 ng/mL

Row | Molecule | Oscillations (O) [1] | Pausing [1] | Spontaneously migrating cells (N) [1] | Oscillations (O) [2] | Pausing [2] | Spontaneously migrating cells (N) [2] | Oscillations (O) [3] | Pausing [3] | Spontaneously migrating cells (N) [3] | Oscillations (O) [4] | Pausing [4] | Spontaneously migrating cells (N) [4] | Spontaneously migrating cells (N) (whole blood spiked at 2.5 ng/mL) | Oscillations (O) [5] | Pausing [5] | Spontaneously migrating cells (N) [5]
1 | IL1-β: immune-modulator previously reported to be elevated in septic blood, spiked into whole blood | 1.4 ± 1.5 | 2.4 ± 2.8 | 3.8 ± 3.2 | 1.0 | 1.0 | 0.3 ± 0.1 | – | – | – | – | – | – | – | – | – | –
2 | TNF-α | 1.7 ± 3.4 | 4.8 ± 8.8 | 7.2 ± 13.9 | 0.7 ± 1.2 | 1.3 ± 0.6 | 2.7 ± 1.2 | 1.3 ± 1.2 | 15.7 ± 14.2 | 25.3 ± 26.1 | – | – | – | – | – | – | –
3 | B1 | – | – | – | – | – | – | – | – | – | 4.8 ± 6.3 | 7.0 ± 6.9 | 10.8 ± 12.4 | 0 ± 0.0 | – | – | –
4 | B2 | – | – | – | – | – | – | 0.3 ± 0.6 | 2.0 ± 1.7 | 2.3 ± 2.3 | – | – | – | – | 4.2 ± 9.7 | 4.7 ± 9.6 | 6.7 ± 13.6
